Results: US20160289678A1, “USE OF MICRORNA 146-A IN THE DIAGNOSIS, TREATMENT AND PREVENTION OF PICORNAVIRUS INFECTION AND MICRORNA 146-A ANTAGONISTS” (priority 2013, published 2016)
Entries after “also recorded” stand apart in the source; their conditions may differ.

Columns and labels:
IRAK1 and TRAF6 [1] = assay: IRAK1 and TRAF6 Western blot in EV71-infected RD cells; format: cell-based, Human; conditions: antagomiR transfected into host cells followed by virus infection
IFNβ promoter = IFNβ promoter luciferase assay in EV71-infected RD cells; format: cell-based, Human; conditions: henceforth 4 h.p.i., compared with negative control or mock transfection
Procedure: Luciferase Assay. All transfections were carried out in triplicate in 96-well plates. RD cells (1×10^4 per well) were seeded 24 h prior to transfection. The luciferase reporter constructs along with the control plasmids (pRL-TK Vector; Promega) were co-transfected into cells at the DNA ratio 5:1 in the presence of pSilencer miRNA expressing vectors (Life Technologies) as indicated by Lipofectamine LTX reagent (Life Technologies). After 48 h incubation, the Dual-Glo luciferase substrate (Promega) was added to each well and the luminescent signals were measured by Victor3 multilabel counter (PerkinElmer) according to the manufacturer's instructions. For IFNβ promoter assays, the reporter constructs were co-transfected with antagomiR-NC or antagomiR-146a into RD cells prior to virus infection. After 24 h incubation, all transfectants were infected with EV71 and assayed at indicated time points. The activity of Renilla luciferase was used as an internal control to normalize transfection efficiency.

IFNβ [2] = assay: IFNβ mRNA expression in EV71-infected RD cells by real-time RT-PCR; format: cell-based, Human; conditions: antagomiR-146a transfectants, EV71 infection
IRAK1 and TRAF6 [3] = assay: IRAK1 and TRAF6 Western blot in EV71-infected Caco-2 cells; format: cell-based, Human; conditions: compared with negative controls
TRAF6 and IRAK1 = TRAF6 and IRAK1 in mEV71-infected MEF cells; format: cell-based; conditions: MEF cells transfected, then mEV71 infection; vs antagomiR-NC
Description: MEF cells were infected with mEV71, followed by quantification of miR-146a using real-time RT-PCR (n=3). MI, mock infection. * P-value <0.05 as compared with mock infection. (b) mEV71 infection suppressed IRAK1 and TRAF6 expressions in protein level in MEF cells. (c) Predicted mus miR-146a BSs within mus IRAK1 and TRAF6 3′UTRs (the first nucleotide following the stop codon was designated as +1). (d) The effect of the ectopic miR-146a on the endogenous IRAK1 and TRAF6. MEF cells were transfected with the miR-146a overexpressing vector or negative control and assayed for IRAK1 and TRAF6 and for miR-146a by western blot and real-time RT-PCR, respectively (n=3). MT, mock transfection; NC, negative control. (e) AntagomiR-146a restored mEV71-induced suppression of TRAF6 and IRAK1 in MEF cells. MEF cells were transfected with antagomiR-146a or antagomiR-NC followed by mEV71 infection. All data presented are mean±s.d. and all P-values are calculated by Student's t-test.

mEV71 = assay: LNA antagomiR injection in EV71 infection mouse model: mice survival; format: in vivo, C57BL/6 mice
Description: (§1) The sequence of LNA antagomiR-146a used in the example is 5′-[…]-3′ (SEQ ID NO:20). Even though the importance of miR-146a in EV71 pathogenesis was clearly elucidated by using miR-146a^−/− mice model, however, the therapeutic potential of miR-146a silencing should be practically evaluated in EV71 infection mouse model. LNA antagomiR-146a, designed locked nucleic acid, was first injected intraperitoneally to evaluate the potential adverse events caused by LNA antagomiRs. […] After making sure the safety of LNA antagomiRs, we next introduced LNA AntagomiR-146a into wild-type mice before or after virus infection as indicated and monitored clinical symptoms of mice daily. […] To verify whether attenuation of virus-induced miR-146a by LNA antagomiR-146a could restore the expression of miR-146a targets, IRAK1 and TRAF6 in assayed organs were measured by Western blot.
Mouse-adapted EV71 and LNA AntagomiRs Administration. C57BL/6 mice were provided by the Knockout Mouse Core Laboratory of National Taiwan University Center of Genomic Medicine, housed in specific pathogen-free animal rooms, and treated according to guidelines from the National Taiwan University College of Medicine and College of Public Health Institutional Animal Care and Use Committee (IACUC). Mouse-adapted EV71 (mEV71) was established referring to a report published by Wang, Y. F. in 2004. mEV71 was generated after four serial passages in neonate mice started from parental human EV71 Parental human EV71 was injected intraperitoneally and next generation mEV71, called 1st mEV71, was isolated from neonate mice brain tissue at 3 d.p.i. The isolated 1st mEV71 was then propagated in RD cells. The passage procedures were performed four times. To determine the 50% lethal dose (LD50), seven-day-old wild-type C57BL/6 mice were fed with indicated PFUs of mEV71. The survival of mice was monitored daily. For wild-type C57BL/6 mice and miR-146a−/− C57BL/6 mice inoculation, each group (n=9 to 13) housed in the same cage was infected with indicated PFUs of mEV71 through the oral route, and the control group was fed with culture medium. The animals were monitored daily, and clinical signs, weight and mortality were recorded. All mouse tissues were obtained from scarified mice with significant clinical illness signs or at 3 d.p.i. if mice had no significant illness signs. The tissues were further assayed for real-time RT-PCR, Western blot, plaque assay, immunohistochemistry staining, and so on. For LNA antagomiRs injection, wild-type mice were injected with LNA antagomiR-146a (1.2 mg/kg) or LNA antagomiR negative control (1.2 mg/kg) through the intraperitoneal route before or after virus infection as indicated and monitored daily. The institutional animal care and use committee (IACUC) approved all animal protocols.

[4] = Potential adverse events of LNA antagomiRs: HE staining and blood chemistry (liver, kidney, serum); format: in vivo, mice; conditions: intraperitoneal injection
Description: as §1
Mouse-adapted EV71 and LNA AntagomiRs Administration. […] The survival of mice was monitored daily. […] The animals were monitored daily, and clinical signs, weight and mortality were recorded. […] For LNA antagomiRs injection, wild-type mice were injected with LNA antagomiR-146a (1.2 mg/kg) or LNA antagomiR negative control (1.2 mg/kg) through the intraperitoneal route before or after virus infection as indicated and monitored daily. […]

miR-146a = miR-146a expression in organs of mEV71-infected mice by real-time RT-PCR; format: in vivo, C57BL/6 mice; conditions: treatment at 0 and 1 d.p.i.; particularly intestine, muscle and lung; vs mock infection / negative control
Description: as §1
(§2) Individual Real-Time RT-PCR. Quantification of miR-146a, Homo RNU6B, mus U6 snRNA , mus IFNβ, and mus β-actin were performed using TaqMan microRNA individual assays or TaqMan gene expression assays (000468, 001093, 001973, Mm00439546_s1 and Mm00607939_s1; Life Technologies) according to the manufacturer's instructions. […] The threshold cycle (CT) is defined as the fractional cycle number at which the fluorescence passes the fixed threshold. […]
(§3) Mouse-adapted EV71 and LNA AntagomiRs Administration. […] The survival of mice was monitored daily. […]

IRAK1 and TRAF6 [5] = assay: IRAK1 and TRAF6 expression in organs of mEV71-infected mice by Western blot; format: in vivo, C57BL/6 mice; conditions: specifically heart, lung and muscle
Description: as §1
Western Blot. Cells or tissues were harvested in RIPA lysis buffer [50 mM Tris-HCl (pH 7.4), 150 mM NaCl, 1 mM EDTA, 1% Triton X-100, 0.1% SDS, 1% sodium deoxycholate, 1 mM PMSF, and protease inhibitor cocktail], and the protein concentration was measured by the BCA protein assay (BioRad). […]
Mouse-adapted EV71 and LNA AntagomiRs Administration. […] The survival of mice was monitored daily. […] The animals were monitored daily, and clinical signs, weight and mortality were recorded. […]

IFNβ [6] = assay: IFNβ expression in EV71-infected mice by real-time RT-PCR; format: in vivo, C57BL/6 mice; conditions: EV71-infected wild-type mice treated at 0 and 1 d.p.i., vs mock infection and negative control
Description: as §1, §2, §3

For “antagomiR-146a: specific antagomiR (Life Technologies) transfected into cells to neutralize virus-induced miR-146a (antisense AACCCATGGAATTCAGTTCTCA; LNA-modified, pattern not given here)”, the “IRAK1 and TRAF6 expression” value (IRAK1 and TRAF6 [1]) was “restored”, the “IRAK1 and TRAF6 expression” value (IRAK1 and TRAF6 [1]; listed as AntagomiR-146a) was “recovered remarkably” and the IFNβ promoter activity (IFNβ promoter) was “attenuated”. For the same substance, the IFNβ promoter activity (IFNβ promoter; listed as AntagomiR-146a) was “restored”, the “IFNβ mRNA expression” value (IFNβ [2]) was “increased dramatically” and the “IFNβ mRNA expression” value (IFNβ [2]; listed as AntagomiR-146a) was “eliminated the suppression”. For the same substance, the “IRAK1 and TRAF6 expression” value (IRAK1 and TRAF6 [3]) was “restored”, the “IRAK1 and TRAF6 expression” value (IRAK1 and TRAF6 [3]; listed as AntagomiR-146a) was “restores” and the “mEV71-induced suppression of TRAF6 and IRAK1” value (TRAF6 and IRAK1) was “restored”.

In the case of “5′-AACCCATGGAATTCAGTTCTCA-3′ (LNA-modified, pattern not given here) [LNA antagomiR-146a, designed locked nucleic acid miR-146a antagonist, 22 nucleotides]”, the survival (mEV71; injection 1 hour before virus infection (0 d.p.i.), 1.2 mg/kg intraperitoneal, 2*10^8 PFU mEV71) is reported as 80%, the survival (mEV71; injection at 1 d.p.i., 1.2 mg/kg intraperitoneal, 2*10^8 PFU mEV71) is reported as 70% and the survival (mEV71; injection at 2 d.p.i., 1.2 mg/kg intraperitoneal) is reported as 56%. For the same substance, the survival (mEV71; injection at 3 d.p.i.) was “did not improve mice survival”, the survival probability (mEV71; intraperitoneal, injected before (0 d.p.i.) or after (1 and 2 d.p.i.) virus infection) was “improves survival probability” and the “pathological changes (HE staining and blood chemistry of liver, kidney, serum)” value [4] was “no significant pathological changes”. The “virus-induced miR-146a expression” value (miR-146a) was “neutralized; also recorded: dramatically suppressed”, the “IRAK1 and TRAF6 expression” value (IRAK1 and TRAF6 [5]) was “restored” and the IFNβ expression (IFNβ [6]) was “regain of IFNβ production”. For the same substance, the IFNβ expression (IFNβ [6]; listed as LNA is antagomiR-146a) was “induced”.
